From patent US20230391752A1, “PYRROLIDINE-3-CARBOXAMIDE DERIVATIVES AND RELATED USES” (Chulalongkorn University, priority 2020, published 2023)

Key:
[1] = biological target: T1, HBV construct U95551 (wild-type) (Hepatitis B virus genotype D subtype ayw, UniProt P03146); type: cell-based; conditions: relative to the wild type construct
T1 construct: expressed in transfected cells; host or cells: HepG2

[2] = biological target: HBV core protein variant I105T (Hepatitis B virus genotype D subtype ayw, UniProt P03146, I105T); assay: Anti-HBV activity in core protein variants: I105T; type: cell-based; conditions: relative to the wild type construct
[3] = biological target: HBV core protein variant T109M (Hepatitis B virus genotype D subtype ayw, UniProt P03146, T109M); assay: Anti-HBV activity in core protein variants: T109M; type: cell-based; conditions: relative to the wild type construct
[4] = biological target: HBV core protein variant T33N (Hepatitis B virus genotype D subtype ayw, UniProt P03146, T33N); assay: Anti-HBV activity in core protein variants: T33N; type: cell-based; conditions: relative to the wild type construct
HBV [5] = assay: In vitro anti-HBV activity in HepG2.2.15 cell line (intracellular HBV DNA by qPCR at 1 μM); type: cell-based; conditions: Hepatitis B virus, 144 h; HepG2.2.15 cells, 1 μM compound, 6 days, intracellular HBV DNA as percentage compared to vehicle control (0.5% DMSO)
How it was run: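 Intracellular HBV DNA was quantified by qPCR and given as percent of vehicle (0.5% DMSO), grouped into letter ranges. Stably transfected HepG2.2.15 cells had 6 days of exposure to 1 μM compound, with medium and compound renewed after day 3.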

[6] = Pharmacokinetic study in dogs; type: in vivo, male Beagle dogs
Procedure: (§1) Test compounds were administered to male Sprague-Dawley rats and male Beagle dogs by oral (PO) and intravenous (TV) administration. For TV dosing, test compounds were dosed at 0.2 to 0.5 mg/kg using a formulation of 10% dimethyl sulfoxide in 20% hydroxypropyl beta-cyclodextrin solution via IV bolus. For PO dosing, test compounds were dosed at 0.3 to 2.0 mg/kg using a formulation of 40% polyethylene glycol 400 in water via oral gavage. Blood samples were collected at pre-dose and various time points up to 24 hours post-dose, and centrifuged to obtain plasma samples. The plasma concentrations of test compounds were quantified by LC-MS/MS methods. The relevant pharmacokinetic parameters (Table D) were calculated via non-compartmental analysis using WinNonlin (Phoenix™, version 8.3).

[7] = Cytotoxicity (MTT) in HepG2.2.15 cells; type: cell-based; conditions: human, 6 days treatment, read-out: HepG2.1.15 cytotoxicity (CC50)
How it was run: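 Adhered HepG2.2.15 cells were exposed to compounds for 6 days, then given […] MTT in serum-free medium for 2 h. Formazan dissolved in DMSO was read at 570 nm. CC50 (50% cell death) came from four-parameter fitting of viability versus concentration.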

[8] = Pharmacokinetic study in rats; type: in vivo, male Sprague-Dawley rats
Procedure: as §1

HBV genotype D = assay: HBV-infected primary human hepatocytes (PHH); type: cell-based, Hepatitis B virus
Procedure: Primary human hepatocytes (PHH) were infected with HBV genotype D produced from HepG2.2.15 cell line on day 1 after plating. Subsequently, the PHH were treated with various concentrations of compounds into 2 different treatment schemes. For treatment scheme 1, the compounds were added into PHH simultaneously with infection media, and incubated for additional 6 days. For treatment scheme 2, the compounds were added into PHH at day 3 after infection, and further incubated for 6 days. After treatment, the cell culture supernatants were collected for the determinations of HBV DNA by qPCR, pgRNA by RT-PCR, HBsAg and HBeAg by ELISA, and cell viability by CCK-8. The cells were harvested for detection of intracellular cccDNA by southern blot.

HBV core protein (Cp149) = biological target: T2, HBV core protein (Cp149) (Hepatitis B virus genotype D subtype ayw, UniProt P03146); assay: HBV capsid assembly by size exclusion chromatography (SEC); type: biochemical; conditions: 50 μM compound, 15 μM Cp149, 16 hours at 21° C.
T2 construct: HBV core C-terminally truncated protein (HBV Cp149); made in house

[9] = biological target: HBV core protein variant D29G (Hepatitis B virus genotype D subtype ayw, UniProt P03146, D29G); assay: Anti-HBV activity in core protein variants: D29G; type: cell-based; conditions: relative to the wild type construct
[10] = biological target: HBV core protein variant F23Y (Hepatitis B virus genotype D subtype ayw, UniProt P03146, F23Y); assay: Anti-HBV activity in core protein variants: F23Y; type: cell-based; conditions: relative to the wild type construct
[11] = biological target: HBV core protein variant Y118F (Hepatitis B virus genotype D subtype ayw, UniProt P03146, Y118F); assay: Anti-HBV activity in core protein variants: Y118F; type: cell-based; conditions: relative to the wild type construct
[12] = biological target: HBV core protein variant T109I (Hepatitis B virus genotype D subtype ayw, UniProt P03146, T109I); assay: Anti-HBV activity in core protein variants: T109I; type: cell-based; conditions: relative to the wild type construct
HBV [13] = assay: Effect on intrahepatic HBV DNA levels in HepG2.2.15 cells (EC50); type: cell-based; conditions: Hepatitis B virus, 144 h, 6 days, intrahepatic HBV DNA by qPCR, read-out: Anti-HBV DNA (EC50)
How it was run: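 Over 6 days at 37° C., HepG2.2.15 cells were treated with compound in 10% FCS medium, refreshed with compound after day 3. Intracellular HBV DNA was quantified by qPCR from cell lysates, and EC50 fitted by nonlinear regression relative to no-drug controls.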

HBV genotypes A to D = type: cell-based; conditions: transfected HepG2 cells

Cc1cc(NC(=O)[C@H]2CCN(C(=O)c3ccc(-c4c(C)ncnc4C)[nH]3)[C@H]2C)ccc1F [Example 149, (2S,3S)-1-(5-(4,6-dimethylpyrimidin-5-yl)-1H-pyrrole-2-carbonyl)-N-(4-fluoro-3-methylphenyl)-2-methylpyrrolidine-3-carboxamide]
Fold change in EC50, U95551 (wild-type) [1]: B (B=1-5)
Fold change in EC50, I105T [2]: B (B=1-5)
Fold change in EC50, T109M [3]: A (A<1)
Fold change in EC50, T33N [4]: D (D>15)
activity at 1 µM (HBV [5]): < 45%
F (%) Dog ([6]; PO 0.3 to 2.0 mg/kg): 63%
half-life ([6]; male, Beagle, dog, plasma, read-out: t1/2 (h) Dog (converted)): 4.5 h
clearance ([6]; male, Beagle, plasma, dog, IV 0.2 to 0.5 mg/kg, read-out: CL (mL/min/kg) Dog): 5.1 mL/min/kg
Vd ([6]; male, Beagle, plasma, dog, IV 0.2 to 0.5 mg/kg, read-out: Vd,ss (L/kg) Dog): 1.3 L/kg
CC50 at 6 days [7]: 10 to 25 µM
CL (mL/min/kg) Rat ([8]; IV 0.2 to 0.5 mg/kg): 20.0 mL/min/kg
F (%) Rat ([8]; PO 0.3 to 2.0 mg/kg): 44%
Vd ([8]; male, Sprague-Dawley, plasma, rat, IV 0.2 to 0.5 mg/kg, read-out: Vd,ss (L/kg) Rat): 2.92 L/kg
half-life ([8]; male, Sprague-Dawley, rat, plasma, read-out: t1/2 (h) Rat (converted)): 6.5 h
HBeAg in PHH (HBV genotype D; treatment scheme 1): inhibited
HBsAg in PHH (HBV genotype D; treatment scheme 1): inhibited
HBV DNA in PHH (HBV genotype D; treatment scheme 1 (compound added simultaneously with infection media, 6 days)): inhibited
cccDNA establishment in PHH (HBV genotype D; treatment scheme 1, southern blot): inhibited
Size of induced capsids based on SEC retention times (HBV core protein (Cp149)): induced capsids similar in size to NVR 3-778
Fold change in EC50, D29G [9]: B (B=1-5)
Fold change in EC50, F23Y [10]: C (C=5-15)
Fold change in EC50, Y118F [11]: A (A<1)
Fold change in EC50, T109I [12]: A (A<1)
EC50 (HBV [13]): < 0.05 µM
Anti-HBV activity across HBV genotypes (HBV genotypes A to D): effective across all HBV genotypes tested (A to D)
